Test results: patent US20230406831A1, “COMPOUNDS AND METHODS OF INHIBITING BACTERIAL CHAPERONIN SYSTEMS” (THE TRUSTEES OF INDIANA UNIVERSITY, priority 2020, published 2023)
Read-outs that look alike come from different tables or passages of the source.

Columns and labels:
[1] = target: T1, HSP60/10 (Homo sapiens, UniProt P10809); test: HSP60/10-mediated dMDH refolding assay; assay type: biochemical; conditions: 37° C., 1 mM ATP, read-out: Biochemical Assay IC50 HSP60/10-dMDH Refolding
T1 construct: octa-Histidine (His8) tag, TEV-cleavable (N, cleaved yes); made in house; host or cells: HSP60 in Rosetta 2 (DE3) E. coli; HSP10 in Rosetta 2 (DE3) pLysS
T1 sequence (P10809 27-573): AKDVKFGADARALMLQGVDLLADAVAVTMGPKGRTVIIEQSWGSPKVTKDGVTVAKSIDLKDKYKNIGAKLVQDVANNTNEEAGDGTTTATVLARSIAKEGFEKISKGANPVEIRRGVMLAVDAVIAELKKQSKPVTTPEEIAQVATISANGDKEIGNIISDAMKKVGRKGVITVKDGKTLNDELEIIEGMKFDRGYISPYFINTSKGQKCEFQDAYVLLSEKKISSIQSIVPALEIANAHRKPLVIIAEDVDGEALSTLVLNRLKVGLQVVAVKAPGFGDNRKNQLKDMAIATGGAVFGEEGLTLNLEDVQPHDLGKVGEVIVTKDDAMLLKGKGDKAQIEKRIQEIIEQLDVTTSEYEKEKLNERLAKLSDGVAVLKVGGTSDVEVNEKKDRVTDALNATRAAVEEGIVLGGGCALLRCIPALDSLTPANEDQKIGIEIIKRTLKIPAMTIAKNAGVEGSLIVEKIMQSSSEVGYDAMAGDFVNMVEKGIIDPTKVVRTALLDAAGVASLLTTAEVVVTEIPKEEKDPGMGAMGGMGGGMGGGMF
Outline: (§1)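 Pre-formed chaperonin–denatured pig heart MDH complexes (50 nM GroEL or HSP60, 60 nM GroES or HSP10, 12 nM dMDH) refolded with 1 mM ATP and compound (100 μM–46 nM) at 37 °C, ~20-40 min for GroEL/ES or ~40-60 min for HSP60/10. After EDTA quench, MDH activity was read as NADH loss at A340. IC50 came from variable-slope regression.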

[2] = target: T2, GroEL/ES (Escherichia coli, UniProt P0A6F5); test: GroEL/ES-mediated dMDH refolding assay; assay type: biochemical, E. coli
T2 construct: made in house; host or cells: GroEL in E. coli DH5a; GroES in E. coli BL21 (DE3)
T2 sequence (P0A6F5 2-548): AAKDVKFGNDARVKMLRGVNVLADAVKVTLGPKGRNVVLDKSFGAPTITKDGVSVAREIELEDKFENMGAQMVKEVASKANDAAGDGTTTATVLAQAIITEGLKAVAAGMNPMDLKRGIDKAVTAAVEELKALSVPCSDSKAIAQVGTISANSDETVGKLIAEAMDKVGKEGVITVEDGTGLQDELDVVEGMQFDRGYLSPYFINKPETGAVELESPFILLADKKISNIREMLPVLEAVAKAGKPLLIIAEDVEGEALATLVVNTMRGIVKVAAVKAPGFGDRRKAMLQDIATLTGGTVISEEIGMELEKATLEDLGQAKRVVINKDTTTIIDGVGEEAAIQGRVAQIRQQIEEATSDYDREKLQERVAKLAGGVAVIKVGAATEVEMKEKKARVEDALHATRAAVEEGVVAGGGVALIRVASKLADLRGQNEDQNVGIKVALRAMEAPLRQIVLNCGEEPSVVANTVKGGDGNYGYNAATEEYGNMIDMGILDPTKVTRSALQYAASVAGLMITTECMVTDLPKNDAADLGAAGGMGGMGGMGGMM
Outline: as §1

[3] = system: S. aureus; test: S. aureus bacterial proliferation assay; assay type: cell-based; conditions: for EC50: Staphylococcus aureus, read-out: S. aureus Proliferation EC50
Outline: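 Growth in BHI with 25 mg/L Ca2+ and 12.5 mg/L Mg2+; log-phase cultures diluted to OD600 0.017 and exposed to compounds at 100 μM–46 nM (3-fold series). Stagnant 37 °C incubation, OD600 read at 6–8 h, corrected with bacteria-free plates; EC50 by variable-slope nonlinear regression.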

[4] = Table 2, cation adjusted BHI media, OD600 at 6-8 h
[5] = Table 3, cation adjusted BHI media, OD600 at 6-8 h

Cc1ccc(O)c(C(=O)Nc2cc(Cl)c(C(C#N)c3ccc(Cl)cc3)cc2C)c1 (stereo not drawn) [Compound 60, N-(5-chloro-4-((4-chlorophenyl)(cyano)methyl)-2-methylphenyl)-2-hydroxy-5-methylbenzamide]
IC50 ([1]; Table 2): 85 µM | IC50 [2]: 41 µM | S. aureus Proliferation EC50 [3, 4]: 1.3 µM

Cc1cc(C(C#N)c2ccc(Cl)cc2)c(Cl)cc1NC(=O)c1cc(Cl)cc(Cl)c1O (stereo not drawn) [Compound 52, 3,5-dichloro-N-(5-chloro-4-((4-chlorophenyl)(cyano)methyl)-2-methylphenyl)-2-hydroxybenzamide]
IC50 ([1]; Table 2): 5.2 µM | IC50 [2]: 3.7 µM | EC50 [3, 4]: 270 nM

COc1ccc(Cl)cc1C(=O)Nc1ccc(Oc2ccccc2)cc1 [Compound 92, 5-chloro-2-methoxy-N-(4-phenoxyphenyl)benzamide]
IC50 ([1]; Table 3): > 100 µM | IC50 [2]: > 100 µM | EC50 [3, 5]: > 100000 nM

COc1ccc(Br)cc1C(=O)Nc1cc(Cl)c(C(C#N)c2ccc(Cl)cc2)cc1C (stereo not drawn) [Compound 49, 5-bromo-N-(5-chloro-4-((4-chlorophenyl)(cyano)methyl)-2-methylphenyl)-2-methoxybenzamide]
IC50 ([1]; Table 2): > 100 µM | IC50 [2]: 71 µM | S. aureus Proliferation EC50 [3, 4]: > 100 µM

O=C(Nc1ccc(Sc2nc3ccccc3s2)c(Cl)c1)c1cc(Br)cc(Br)c1O [Compound 1, reference compound]
IC50 ([1]; Table 1): 3.7 µM | IC50 [2]: 2 µM | EC50 ([3]; Table 1, cation adjusted BHI media, OD600 at 6-8 h): 300 nM

COc1ccc(C)cc1C(=O)Nc1cc(Cl)c(C(C#N)c2ccc(Cl)cc2)cc1C (stereo not drawn) [Compound 59, N-(5-chloro-4-((4-chlorophenyl)(cyano)methyl)-2-methylphenyl)-2-methoxy-5-methylbenzamide]
IC50 ([1]; Table 2): > 100 µM | IC50 [2]: 86 µM | S. aureus Proliferation EC50 [3, 4]: > 100 µM

Cc1cc(C(C#N)c2ccc(Cl)cc2)c(Cl)cc1NC(=O)c1ccccc1O (stereo not drawn) [Compound 64, N-(5-chloro-4-((4-chlorophenyl)(cyano)methyl)-2-methylphenyl)-2-hydroxybenzamide]
IC50 ([1]; Table 2): 50 µM | IC50 [2]: 33 µM | EC50 [3]: 280 nM

COc1ccc(Cl)cc1C(=O)Nc1ccc(Cc2ccccc2)cc1 [Compound 98, N-(4-benzylphenyl)-5-chloro-2-methoxybenzamide]
IC50 ([1]; Table 3): > 100 µM | IC50 [2]: > 100 µM | EC50 [3, 5]: > 100000 nM

O=C(Nc1ccc(Oc2ccccc2)cc1)c1cc(Cl)ccc1O [Compound 93, 5-chloro-2-hydroxy-N-(4-phenoxyphenyl)benzamide]
IC50 ([1]; Table 3): > 100 µM | IC50 [2]: 68 µM | EC50 [3, 5]: 360 nM

CC(=O)Nc1cc(Cl)c(C(C#N)c2ccc(Cl)cc2)cc1C (stereo not drawn) [Compound 83, N-(5-chloro-4-((4-chlorophenyl)(cyano)methyl)-2-methylphenyl)acetamide]
IC50 ([1]; Table 2): 69 µM | IC50 [2]: > 100 µM | S. aureus Proliferation EC50 [3, 4]: > 100 µM

COc1ccc(Cl)cc1C(=O)Nc1ccc(Sc2nc3ccccc3s2)cc1 [Compound 96, N-(4-(benzo[d]thiazol-2-ylthio)phenyl)-5-chloro-2-methoxybenzamide]
IC50 ([1]; Table 3): > 100 µM | IC50 [2]: 59 µM | EC50 [3, 5]: > 100000 nM

Cc1cc(C(C#N)c2ccc(Cl)cc2)c(Cl)cc1NC(=O)c1cc(Cl)ccc1O (stereo not drawn) [Compound 58, 5-chloro-N-(5-chloro-4-((4-chlorophenyl)(cyano)methyl)-2-methylphenyl)-2-hydroxybenzamide]
IC50 ([1]; Table 2): 40 µM | IC50 [2]: 24 µM | EC50 [3]: 140 nM

COc1ccc(Cl)cc1C(=O)Nc1ccc(Oc2ccc(Cl)cc2)cc1 [Compound 88, 5-chloro-N-(4-(4-chlorophenoxy)phenyl)-2-methoxybenzamide]
IC50 ([1]; Table 3): > 100 µM | IC50 [2]: > 100 µM | EC50 [3, 5]: > 100000 nM

Cc1cc(C(C#N)c2ccc(Cl)cc2)c(Cl)cc1NC(=O)c1cccc(O)c1 (stereo not drawn) [Compound 65, N-(5-chloro-4-((4-chlorophenyl)(cyano)methyl)-2-methylphenyl)-3-hydroxybenzamide]
IC50 ([1]; Table 2): 33 µM | IC50 [2]: 55 µM | S. aureus Proliferation EC50 [3, 4]: 1.8 µM

Cc1cc(C(C#N)c2ccc(Cl)cc2)c(Cl)cc1NC(=O)c1ccccc1Cl (stereo not drawn) [Compound 76, 2-chloro-N-(5-chloro-4-((4-chlorophenyl)(cyano)methyl)-2-methylphenyl)benzamide]
IC50 ([1]; Table 2): > 100 µM | IC50 [2]: 54 µM | S. aureus Proliferation EC50 [3, 4]: > 100 µM

COc1ccc(Cl)cc1C(=O)Nc1ccc(Oc2ccccc2)c(Cl)c1 [Compound 90, 5-chloro-N-(3-chloro-4-phenoxyphenyl)-2-methoxybenzamide]
IC50 ([1]; Table 3): > 100 µM | IC50 [2]: > 100 µM | EC50 [3, 5]: > 100000 nM

COc1c(Cl)cccc1C(=O)Nc1cc(Cl)c(C(C#N)c2ccc(Cl)cc2)cc1C (stereo not drawn) [Compound 53, 3-chloro-N-(5-chloro-4-((4-chlorophenyl)(cyano)methyl)-2-methylphenyl)-2-methoxybenzamide]
IC50 ([1]; Table 2): > 100 µM | IC50 [2]: 81 µM | S. aureus Proliferation EC50 [3, 4]: > 100 µM

COc1cc(Cl)ccc1C(=O)Nc1cc(Cl)c(C(C#N)c2ccc(Cl)cc2)cc1C (stereo not drawn) [Compound 55, 4-chloro-N-(5-chloro-4-((4-chlorophenyl)(cyano)methyl)-2-methylphenyl)-2-methoxybenzamide]
IC50 ([1]; Table 2): > 100 µM | IC50 [2]: 59 µM | S. aureus Proliferation EC50 [3, 4]: > 100 µM

Cc1cc(C(C#N)c2ccc(Cl)cc2)c(Cl)cc1NC(=O)c1ccc(F)cc1 (stereo not drawn) [Compound 81, N-(5-chloro-4-((4-chlorophenyl)(cyano)methyl)-2-methylphenyl)-4-fluorobenzamide]
IC50 ([1]; Table 2): > 100 µM | IC50 [2]: 77 µM | S. aureus Proliferation EC50 [3, 4]: > 100 µM

O=C(Nc1ccccc1)c1cc(Cl)ccc1O [Compound 117, 5-chloro-2-hydroxy-N-phenylbenzamide]
IC50 ([1]; Table 3): > 100 µM | IC50 [2]: > 100 µM | EC50 [3, 5]: 2200 nM

COC(=O)c1ccc(NC(=O)c2cc(Cl)ccc2OC)cc1 [Compound 106, methyl 4-(5-chloro-2-methoxybenzamido)benzoate]
IC50 ([1]; Table 3): > 100 µM | IC50 [2]: 46 µM | EC50 [3, 5]: > 100000 nM

COc1ccc(Cl)cc1C(=O)Nc1ccc(O)cc1 [Compound 114, 5-chloro-N-(4-hydroxyphenyl)-2-methoxybenzamide]
IC50 ([1]; Table 3): > 100 µM | IC50 [2]: > 100 µM | EC50 [3, 5]: > 100000 nM

COc1ccc(Cl)cc1C(=O)Nc1ccc(Oc2ccc(Cl)cc2)c(Cl)c1 [Compound 86, 5-chloro-N-(3-chloro-4-(4-chlorophenoxy)phenyl)-2-methoxybenzamide]
IC50 ([1]; Table 3): > 100 µM | IC50 [2]: > 100 µM | EC50 [3, 5]: > 100000 nM

Cc1cc(C(C#N)c2ccc(Cl)cc2)c(Cl)cc1NC(=O)c1ccc(Cl)cc1 (stereo not drawn) [Compound 78, 4-chloro-N-(5-chloro-4-((4-chlorophenyl)(cyano)methyl)-2-methylphenyl)benzamide]
IC50 ([1]; Table 2): > 100 µM | IC50 [2]: 63 µM | S. aureus Proliferation EC50 [3, 4]: > 100 µM

Cc1cc(C(C#N)c2ccc(Cl)cc2)c(Cl)cc1NC(=O)c1cccc(Br)c1 (stereo not drawn) [Compound 74, 3-bromo-N-(5-chloro-4-((4-chlorophenyl)(cyano)methyl)-2-methylphenyl)benzamide]
IC50 ([1]; Table 2): > 100 µM | IC50 [2]: 50 µM | S. aureus Proliferation EC50 [3, 4]: > 100 µM

Cc1cc(C(C#N)c2ccc(Cl)cc2)c(Cl)cc1NC(=O)c1ccccc1N (stereo not drawn) [Compound 70, 2-amino-N-(5-chloro-4-((4-chlorophenyl)(cyano)methyl)-2-methylphenyl)benzamide]
IC50 ([1]; Table 2): > 100 µM | IC50 [2]: 44 µM | S. aureus Proliferation EC50 [3, 4]: > 100 µM

COc1ccccc1C(=O)Nc1cc(Cl)c(C(C#N)c2ccc(Cl)cc2)cc1C (stereo not drawn) [Compound 61, N-(5-chloro-4-((4-chlorophenyl)(cyano)methyl)-2-methylphenyl)-2-methoxybenzamide]
IC50 ([1]; Table 2): > 100 µM | IC50 [2]: 72 µM | S. aureus Proliferation EC50 [3, 4]: > 100 µM

COc1c(Br)cccc1C(=O)Nc1cc(Cl)c(C(C#N)c2ccc(Cl)cc2)cc1C (stereo not drawn) [Compound 47, 3-bromo-N-(5-chloro-4-((4-chlorophenyl)(cyano)methyl)-2-methylphenyl)-2-methoxybenzamide]
IC50 ([1]; Table 2): > 100 µM | IC50 [2]: 49 µM | S. aureus Proliferation EC50 [3, 4]: > 100 µM

COc1ccc(Cl)cc1C(=O)Nc1ccc(OCc2ccccc2)cc1 [Compound 102, N-(4-(benzyloxy)phenyl)-5-chloro-2-methoxybenzamide]
IC50 ([1]; Table 3): > 100 µM | IC50 [2]: > 100 µM | EC50 [3, 5]: > 100000 nM

COc1cccc(C(=O)Nc2cc(Cl)c(C(C#N)c3ccc(Cl)cc3)cc2C)c1 (stereo not drawn) [Compound 62, N-(5-chloro-4-((4-chlorophenyl)(cyano)methyl)-2-methylphenyl)-3-methoxybenzamide]
IC50 ([1]; Table 2): > 100 µM | IC50 [2]: 67 µM | S. aureus Proliferation EC50 [3, 4]: > 100 µM

COc1ccc(Cl)cc1C(=O)Nc1ccc(C(=O)O)cc1 [Compound 108, 4-(5-chloro-2-methoxybenzamido)benzoic acid]
IC50 ([1]; Table 3): > 100 µM | IC50 [2]: > 100 µM | EC50 [3, 5]: > 100000 nM
